What was measured:
[1] = test system: solid tumours; details: Phase I study; cited from earlier work
[2] = biological target: T1, TCR / mCD1d-glycolipid complex (Mus musculus, UniProt P11609); assay: Surface plasmon resonance: TCR binding to mCD1d-glycolipid complexes
T1 sequence (P11609 19-297): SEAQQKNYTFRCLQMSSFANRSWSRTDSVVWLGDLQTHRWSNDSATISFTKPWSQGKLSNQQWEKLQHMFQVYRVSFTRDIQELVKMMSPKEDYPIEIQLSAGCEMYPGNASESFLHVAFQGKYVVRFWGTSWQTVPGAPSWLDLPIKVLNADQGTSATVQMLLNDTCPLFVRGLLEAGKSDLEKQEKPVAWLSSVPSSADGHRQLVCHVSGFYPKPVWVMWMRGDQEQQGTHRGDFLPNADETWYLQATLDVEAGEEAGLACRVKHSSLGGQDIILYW
T1 sequence (P01887 21-119 partner): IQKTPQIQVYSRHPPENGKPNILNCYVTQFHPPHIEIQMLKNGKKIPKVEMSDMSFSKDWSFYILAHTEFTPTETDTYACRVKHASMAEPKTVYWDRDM
Experimental: SPR studies were conducted using a Biacore 3000 (Biacore). Glycolipids were dissolved at 1 mg/ml in DMSO and before loading were diluted to 0.25 mg/ml with vehicle solution (50 mM Tris-HCl pH 7.0, 4.8 mg/ml sucrose, 0.5 mg/ml deoxycholate and 0.022% Tween-20), heated for 20 minutes at 80° C. After cooling 1 μg of each lipid was incubated with 10 μg enzymatically biotinylated mCD1d overnight at room temperature. In one embodiment, 400-600 response units (RU) of mCD1d-glycolipid complexes were immobilized onto a CA capture chip (Biacore). A reference surface was generated in another flow channel with unloaded mCD1d immobilized at RU of 500. During the association phase, a series of increasing concentrations of TCR (in 10 mM HEPES, 150 mM NaCl, 3.0 mM EDTA, pH 7.4) in duplicate were injected for 80 seconds and the dissociation phase (running buffer only) was monitored over 45 minutes. Experiments were carried out at 25° C. with a flow rate of 30 μl/min and performed at least two to three times, each time with a different batch of TCR preparation. Kinetic parameters were calculated after subtracting the response to mCD1d molecules in the reference channel, using a simple Langmuir 1:1 model in the BIA evaluation software version 4.1. One representative sensorgram for each lipid is shown. […]

[3] = biological target: T2, CD1d (Mus musculus, UniProt P11609); assay: Buried surface area between glycolipid and CD1d in crystal structures; details: mCD1d-glycolipid-mTCR crystal structures
T2 construct: made in house
T2 sequence (P11609 19-297 limits assumed): T1 sequence (P11609 19-297)
Experimental: First, the ternary mCD1d-lipid-mTCR complexes using the glycolipids 4ClPhC-α-GalCer (3a) and PyrC-α-GalCer (3c) were prepared as described previously for NU-α-GalCer, and purified by size exclusion chromatography (SEC) using Superdex S200 10/300 GL (GE Healthcare). Both mCD1d-4ClPhC-α-GalCer-mTCR and mCD1d-PyrC-α-GalCer-mTCR complexes were concentrated to 3.5 mg/ml in SEC buffer (50 mM Hepes, pH 7.5, 150 mM NaCl). Crystals were grown at 22.3° C. by sitting drop vapor diffusion while by mixing 0.5 μl mCD1d-4ClPhC-α-GalCer-mTCR and 0.5 μl precipitate (20% PEG 4000, 0.2 M sodium thiocyanate) or by mixing 1 μl mCD1d-PyrC-α-GalCer-mTCR and […] precipitate (20% PEG 4000, 0.2 M di-ammonium hydrogen citrate), respectively.
Crystals were flash-cooled at 100° K in a mother liquor containing 30% glycerol. […]
The asymmetric unit contains one mCD1d-glycolipid-TCR molecule with estimated solvent content of 57.3% based on a Matthews' coefficient (Vm) of 2.88 A^3/Da for 4ClPhC-α-GalCer and 56.9% (VM) of 2.86 A^3/Da for PyrC-α-GalCer. Crystal structures were determined by molecular replacement using MOLREP as part of the CCP4 suite. […]

In the case of CCCCCCCCCCCCCCCCCCCCCCCCCC(=O)N[C@@H](CO[C@H]1O[C@H](CO)[C@H](O)[C@H](O)[C@H]1O)[C@H](O)[C@H](O)CCCCCCCCCCCCCC [α-GalCer, α-galactosyl ceramide], the “treatment of solid tumours” value [1] is listed as “ineffective”, the Kd [2] is listed as 11 nM and the “buried surface area between glycolipid and CD1d” value [3] is listed as 1,027 Å^2.
